Assay results as given in ChEMBL document CHEMBL4270577, “Synthesis, anticancer activity and molecular modeling studies of 1,2,4-triazole derivatives as EGFR inhibitors” (Eur J Med Chem, 2018).

Experiments:
MDA-MB-435 [1] = assay: Growth inhibition of human MDA-MB-435 cells at 10 uM incubated for 48 hrs by sulforhodamine B assay relative to control; type: functional; details: MDA-MB-435, 48 h, read-out: GI
TK-10 = assay: Growth inhibition of human TK10 cells at 10 uM incubated for 48 hrs by sulforhodamine B assay relative to control; type: functional; details: TK-10, 48 h, read-out: GI
RPMI-8226 = assay: Growth inhibition of human RPMI8226 cells at 10 uM incubated for 48 hrs by sulforhodamine B assay relative to control; type: functional; details: RPMI-8226, 48 h, read-out: GI
NCI-H460 = assay: Antiproliferative activity against human H460 cells after 48 hrs by propidium iodide staining-based fluorometric analysis; type: functional, cell-based; details: NCI-H460, 48 h
SN12C = assay: Cytotoxicity against human SN12C cells incubated for 48 hrs by sulforhodamine B assay; type: functional
HCT-15 [2] = assay: Growth inhibition of human HCT15 cells at 10 uM incubated for 48 hrs by sulforhodamine B assay relative to control; type: functional; details: HCT-15, 48 h, read-out: GI
SW-620 = assay: Cytotoxicity against human SW620 cells incubated for 48 hrs by sulforhodamine B assay; type: functional; details: SW-620, 48 h
HT-29 [3] = assay: Growth inhibition of human HT-29 cells at 10 uM incubated for 48 hrs by sulforhodamine B assay relative to control; type: functional; details: HT-29, 48 h, read-out: GI
EKVX = assay: Growth inhibition of human EKVX cells at 10 uM incubated for 48 hrs by sulforhodamine B assay relative to control; type: functional; details: read-out: GI
A549 [4] = assay: Induction of apoptosis in human A549 cells assessed as viable cells at 1.4 uM after 24 hrs by Annexin V/propidium iodide staining based flow cytometric analysis (reference value: 98.03%); type: functional; details: A549, 24 h, read-out: Activity
SNB-75 = assay: Growth inhibition of human SNB75 cells at 10 uM incubated for 48 hrs by sulforhodamine B assay relative to control; type: functional; details: SNB-75, 48 h, read-out: GI
MIA PaCa-2 = assay: Antiproliferative activity against human MIAPaCa2 cells after 48 hrs by propidium iodide staining-based fluorometric analysis; type: functional, cell-based; details: MIA PaCa-2, 48 h
SK-MEL-5 = assay: Growth inhibition of human SK-MEL-5 cells at 10 uM incubated for 48 hrs by sulforhodamine B assay relative to control; type: functional; details: SK-MEL-5, 48 h, read-out: GI
A498 = assay: Growth inhibition of human A498 cells at 10 uM incubated for 48 hrs by sulforhodamine B assay relative to control; type: functional; details: A498, 48 h, read-out: GI
A549 [5] = assay: Cell cycle arrest in human A549 cells assessed as accumulation at G1 phase at 1.4 uM after 24 hrs by propidium iodide staining based flow cytometry (reference value: 67.52%); type: functional
A549 [6] = assay: Growth inhibition of human A549/ATCC cells at 10 uM incubated for 48 hrs by sulforhodamine B assay relative to control; type: functional; details: A549, 48 h, read-out: GI
UO-31 = assay: Growth inhibition of human UO31 cells at 10 uM incubated for 48 hrs by sulforhodamine B assay relative to control; type: functional; details: UO-31, 48 h, read-out: GI
COLO 205 = assay: Growth inhibition of human COLO205 cells at 10 uM incubated for 48 hrs by sulforhodamine B assay relative to control; type: functional; details: COLO 205, 48 h, read-out: GI
T47D = assay: Growth inhibition of human T47D cells at 10 uM incubated for 48 hrs by sulforhodamine B assay relative to control; type: functional; details: read-out: GI
NCI-H23 = assay: Cytotoxicity against human NCI-H23 cells incubated for 48 hrs by sulforhodamine B assay; type: functional; details: NCI-H23, 48 h
KM12 = assay: Growth inhibition of human KM12 cells at 10 uM incubated for 48 hrs by sulforhodamine B assay relative to control; type: functional; details: KM12, 48 h, read-out: GI
NCI/ADR-RES = assay: Cytotoxicity against human NCI/ADR-RES cells incubated for 48 hrs by sulforhodamine B assay; type: functional
LOX IMVI = assay: Growth inhibition of human LOXIMVI cells at 10 uM incubated for 48 hrs by sulforhodamine B assay relative to control; type: functional; details: read-out: GI
UACC-257 = assay: Growth inhibition of human UACC257 cells at 10 uM incubated for 48 hrs by sulforhodamine B assay relative to control; type: functional; details: UACC-257, 48 h, read-out: GI
MDA-MB-435 [7] = assay: Cytotoxicity against human MDA-MB-435 cells incubated for 48 hrs by sulforhodamine B assay; type: functional; details: MDA-MB-435, 48 h
OVCAR-3 = assay: Growth inhibition of human OVCAR3 cells at 10 uM incubated for 48 hrs by sulforhodamine B assay relative to control; type: functional; details: OVCAR-3, 48 h, read-out: GI
HT-29 [8] = assay: Antiproliferative activity against human HT-29 cells after 48 hrs by propidium iodide staining-based fluorometric analysis; type: functional, cell-based; details: HT-29, 48 h
HCT-15 [9] = assay: Cytotoxicity against human HCT15 cells incubated for 48 hrs by sulforhodamine B assay; type: functional; details: HCT-15, 48 h
MOLT-4 = assay: Cytotoxicity against human MOLT4 cells incubated for 48 hrs by sulforhodamine B assay; type: functional; details: MOLT-4, 48 h
SR = assay: Growth inhibition of human SR cells at 10 uM incubated for 48 hrs by sulforhodamine B assay relative to control; type: functional; details: read-out: GI
Hs-578T = assay: Growth inhibition of human Hs 578T cells at 10 uM incubated for 48 hrs by sulforhodamine B assay relative to control; type: functional; details: read-out: GI
SF-268 = assay: Growth inhibition of human SF268 cells at 10 uM incubated for 48 hrs by sulforhodamine B assay relative to control; type: functional; details: SF-268, 48 h, read-out: GI
SK-OV-3 = assay: Growth inhibition of human SKOV3 cells at 10 uM incubated for 48 hrs by sulforhodamine B assay relative to control; type: functional; details: SK-OV-3, 48 h, read-out: GI
[10] = read-out: LC50 (the source's name)

COc1ccc(-c2nc3sc(-c4ccc(Cl)cc4)cn3n2)cc1
inhibition of growth at 10 µM (MDA-MB-435 [1]): 25%
inhibition of growth at 10 µM (TK-10): -30.8%
inhibition of growth at 10 µM (RPMI-8226): 55.1%
IC50 (NCI-H460): 1.6 µM
GI50 (SN12C): 1.84 µM
TGI (SN12C): > 50 µM
CC50 (SN12C; [10]): > 50 µM
inhibition of growth at 10 µM (HCT-15 [2]): 28%
GI50 (SW-620): 5.51 µM
TGI (SW-620): > 50 µM
CC50 (SW-620; [10]): > 50 µM
inhibition of growth at 10 µM (HT-29 [3]): 82.7%
inhibition of growth at 10 µM (EKVX): 52.5%
viability at 1.4 µM (A549 [4]): 88%
inhibition of growth at 10 µM (SNB-75): -1.66%
IC50 (MIA PaCa-2): 2.6 µM
inhibition of growth at 10 µM (SK-MEL-5): 27.4%
inhibition of growth at 10 µM (A498): -25.8%
Activity (A549 [5]): 58.11%
inhibition of growth at 10 µM (A549 [6]): -30%
inhibition of growth at 10 µM (UO-31): -7.46%
inhibition of growth at 10 µM (COLO 205): 47.5%
inhibition of growth at 10 µM (T47D): 45.1%
GI50 (NCI-H23): 6.66 µM
TGI (NCI-H23): > 50 µM
CC50 (NCI-H23; [10]): > 50 µM
inhibition of growth at 10 µM (KM12): 45.3%
GI50 (NCI/ADR-RES): 3.75 µM
TGI (NCI/ADR-RES): > 50 µM
CC50 (NCI/ADR-RES; [10]): > 50 µM
inhibition of growth at 10 µM (LOX IMVI): 45.8%
inhibition of growth at 10 µM (UACC-257): 15.4%
GI50 (MDA-MB-435 [7]): > 50 µM
TGI (MDA-MB-435 [7]): > 50 µM
CC50 (MDA-MB-435 [7]; [10]): > 50 µM
inhibition of growth at 10 µM (OVCAR-3): 75.3%
IC50 (HT-29 [8]): 2.4 µM
GI50 (HCT-15 [9]): 24.5 µM
TGI (HCT-15 [9]): > 50 µM
CC50 (HCT-15 [9]; [10]): > 50 µM
GI50 (MOLT-4): 11.3 µM
TGI (MOLT-4): > 50 µM
CC50 (MOLT-4; [10]): > 50 µM
inhibition of growth at 10 µM (SR): 48.9%
inhibition of growth at 10 µM (Hs-578T): 73%
inhibition of growth at 10 µM (SF-268): 34.9%
inhibition of growth at 10 µM (SK-OV-3): 50.5%
